The values that follow come from patent US20120004222A1, “CB2 RECEPTOR LIGANDS FOR THE TREATMENT OF PAIN” (priority 2007, published 2012).

SMILES strings stand for the structures.

For the first assay, the target named is T1, human CB2 (Homo sapiens, UniProt P34972).
T1 construct: expressed in transfected cells; host or cells: CHO (Chinese Hamster Ovary) cells
T1 sequence (P34972 whole entry): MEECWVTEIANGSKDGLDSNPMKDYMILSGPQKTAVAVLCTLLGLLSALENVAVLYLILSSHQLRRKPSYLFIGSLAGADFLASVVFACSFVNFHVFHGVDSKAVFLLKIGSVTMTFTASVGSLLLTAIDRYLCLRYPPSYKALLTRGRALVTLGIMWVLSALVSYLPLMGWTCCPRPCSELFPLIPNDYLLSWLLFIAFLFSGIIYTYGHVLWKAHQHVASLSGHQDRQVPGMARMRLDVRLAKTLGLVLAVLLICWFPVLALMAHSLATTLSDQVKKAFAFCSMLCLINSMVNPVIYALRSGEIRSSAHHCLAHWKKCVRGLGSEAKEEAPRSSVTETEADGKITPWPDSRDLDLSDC
Put plainly: Cyclic AMP assay (HTRF) in CHO cells expressing human CB2.
Settings: not given
It is filed as cell-based. The protocol:
Chinese Hamster Ovary cells (CHO) expressing human CB1 or human CB2 (3.3×10^5 cells/ml) were preincubated for 15 min at room temperature with tested agonist and 3-isobutyl-1-methylxanthine (IBMX; 200 μM) in phosphate buffered saline containing 1 mg/ml BSA (assay buffer) followed by 30 min incubation with forskolin in a total volume of 10 μl. The optimal forskolin concentration for each cell line was established in a separate experiment and adjusted to stimulate 70% of maximal cAMP response. cAMP content was measured using an HTRF assay (CisBio) according to the manufacturer's two step protocol.
(Time-resolved FRET reads energy transfer from a long-lived donor to a nearby acceptor.)
The IC50 is the concentration that inhibits the measured activity by half. As for `FC1(F)CCN(Cc2nc(-c3nc(-c4ccccc4)c[nH]3)n3ccccc23)CC1` [Example II-1, 1-[(4,4-difluoropiperidin-1-yl)methyl]-3-(4-phenyl-1H-imidazol-2-yl)imidazo[1,5-a]pyridine], the IC50 was 178 nM.

`FC1(F)CCN(Cc2nc(-c3cccc(C(F)(F)F)c3)n3ccccc23)CC1` [Example IV-1, 1-[(4,4-difluoropiperidin-1-yl)methyl]-3-[3-(trifluoromethyl)phenyl]imidazo[1,5-α]pyridine]: the IC50 turned out to be 17 nM.

Compound `CC(C)(O)CCc1ccc(-c2nc(CN3CCC(F)(F)CC3)c3ccccn23)cc1` [IV-6, 4-(4-{1-[(4,4-DIFLUOROPIPERIDIN-1- YL)METHYL]IMIDAZO[1,5-A]PYRIDIN-3- YL}PHENYL)-2-METHYLBUTAN-2-OL] showed an IC50 of 1350 nM.

The assay is the same for the next values; noted with them: CHO cells expressing human CB2; forskolin-stimulated cAMP, IBMX 200 μM; read-out: CB2 IC50.
Turning to `FC1(F)CCN(Cc2nc(-c3nc(-c4cccc(C(F)(F)F)c4)c[nH]3)n3ccccc23)CC1` [II-5, 1-[(4,4-DIFLUOROPIPERIDIN-1- YL)METHYL]-3-{4-[3- (TRIFLUOROMETHYL)PHENYL]-1H- IMIDAZOL-2-YL}IMIDAZO [1,5-A]PYRIDINE], the IC50 stood at 165 nM.

On to `Fc1ccc(-c2cc(-c3nc(CN4CCOCC4)c4ccccn34)[nH]n2)cc1` [Example III-1, 3-[3-(4-fluorophenyl)-1H-pyrazol-5-yl]-1-(morpholin-4-ylmethyl)imidazo[1,5-a]pyridine], for which the IC50 was 617 nM.

`FC1(F)CCN(Cc2nc(-c3nc(-c4ccc(Cl)cc4Cl)c[nH]3)n3ccccc23)CC1` [II-3, 3-[4-(2,4-DICHLOROPHENYL)-1H- IMIDAZOL-2-YL]-1-[(4,4- DIFLUOROPIPERIDIN-1- YL)METHYL]IMIDAZO[1,5-A]PYRIDINE]: the IC50 was found to be 146 nM.

For `c1ccc2[nH]c(-c3nc(CN4CCOCC4)c4ccccn34)nc2c1` [Example I-1, 2-[1-(morpholin-4-ylmethyl)imidazo[1,5-a]pyridin-3-yl]-1H-benzimidazole], the IC50 was 1260 nM.

Consider `Fc1ccc(-c2c[nH]c(-c3nc(CN4CCC(F)(F)CC4)c4ccccn34)n2)cc1F` [II-4, 3-[4-(3,4-DIFLUOROPHENYL)-1H- IMIDAZOL-2-YL]-1-[(4,4- DIFLUOROPIPERIDIN-1-YL)METHYL] IMIDAZO[1,5-A]PYRIDINE], for which the IC50 came out at 171 nM.

Take `FC1(F)CCN(Cc2nc(-c3cccc(-n4cccn4)c3)n3ccccc23)CC1` [IV-7, 1-[(4,4-DIFLUOROPIPERIDIN-1- YL)METHYL]-3-[3-(1H-PYRAZOL-1- YL)PHENYL]IMIDAZO[1,5-A]PYRIDINE]: the IC50 amounted to 113 nM.

For `FC1(F)CCN(Cc2nc(-c3nc(-c4ccc(Cl)cc4)c[nH]3)n3ccccc23)CC1` [II-2, 3-[4-(4-CHLOROPHENYL)-1H-IMIDAZOL-2- YL]-1-[(4,4-DIFLUOROPIPERIDIN-1- YL)METHYL]IMIDAZO[1,5-A]PYRIDINE], the IC50 worked out at 199 nM.

With `FC1(F)CCN(Cc2nc(-c3ccc(-c4ccn[nH]4)cc3)n3ccccc23)CC1` [IV-4, 1-[(4,4-DIFLUOROPIPERIDIN-1- YL)METHYL]-3-[4-(1H-PYRAZOL-5- YL)PHENYL]IMIDAZO[1,5-A]PYRIDINE], the IC50 was found to be 116 nM.
